Values joined by “and” are separate entries in the source; they are usually repeats but may differ in a detail not shown here. Identical values can stand only once.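 Step 1: Grow cells in 96-well plates. Step 2: Expose to compound for 48 hours at 5 concentrations. Step 3: Interpolate endpoints linearly; if unreached, use highest concentration. GI50 = concentration required for 50% inhibition of growth.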 Active and inactive are the calls of the source. Rule as the data show it: active = GI50 up to about 1.1 µM and inactive = higher.
Legend:
Assay in all cases: NCI tumour cell line growth inhibition, 48 h
OVCAR-8 = system: OVCAR-8
M14 = system: M14
UO-31 = system: UO-31
HL-60 = system: HL-60
NCI-H460 = system: NCI-H460
SNB-78 = system: SNB-78
SK-MEL-28 = system: SK-MEL-28
RXF 393 = system: RXF 393
CCRF-CEM = system: CCRF-CEM
CAKI-1 = system: CAKI-1
NCI-H226 = system: NCI-H226
A549 = system: A549
SK-MEL-5 = system: SK-MEL-5
SN12C = system: SN12C
MDA-N = system: MDA-N
Hs-578T = system: Hs-578T
MDA-MB-435 = system: MDA-MB-435
MDA-MB-231 = system: MDA-MB-231
PC-3 = system: PC-3
BT-549 = system: BT-549

Measured: GI50

O=C(c1ccccc1)C1N=NN(Cc2ccccc2[N+](=O)[O-])C1C(=O)c1ccccc1 (centres undefined)
inactive: OVCAR-8 > 100 µM | M14 > 100 µM | UO-31 > 100 µM | HL-60 > 100 µM | NCI-H460 > 100 µM | SNB-78 > 100 µM | SK-MEL-28 > 100 µM | RXF 393 > 100 µM | CCRF-CEM > 100 µM | CAKI-1 > 100 µM | NCI-H226 > 100 µM | A549 37.8 µM | SK-MEL-5 > 100 µM

CC1=C(C(=O)NCc2ccccc2)C(c2ccc(Cl)c(Cl)c2)C(C(=O)NCc2ccccc2)=C(C)N1
inactive: OVCAR-8 > 100 µM | M14 > 100 µM | UO-31 > 100 µM | HL-60 > 100 µM | NCI-H460 > 100 µM | SNB-78 > 100 µM | SK-MEL-28 > 100 µM | RXF 393 > 100 µM | CCRF-CEM > 100 µM | NCI-H226 > 100 µM | SN12C > 100 µM | A549 > 100 µM | SK-MEL-5 > 100 µM

CN1C(=O)C(=CN(C)c2ccccc2)C(=O)N(C)C1=O
inactive: OVCAR-8 > 100 µM | M14 74.5 µM | UO-31 > 100 µM | HL-60 51.1 µM | NCI-H460 > 100 µM | SNB-78 > 100 µM | SK-MEL-28 > 100 µM | RXF 393 69 µM | CCRF-CEM 40.4 µM | CAKI-1 30.1 µM | NCI-H226 63.2 µM | SN12C > 100 µM | A549 > 100 µM | SK-MEL-5 > 100 µM

CC1CCCC(C(O)CC2CC(=O)N(c3ccccc3)C(=O)C2)C1=O (centres undefined)
inactive: OVCAR-8 > 100 µM | M14 > 100 µM | UO-31 > 100 µM | HL-60 > 100 µM | NCI-H460 > 100 µM | SNB-78 > 100 µM | SK-MEL-28 > 100 µM | RXF 393 > 100 µM | CCRF-CEM > 100 µM | CAKI-1 > 100 µM | NCI-H226 > 100 µM | SN12C > 100 µM | A549 > 100 µM

C\C=C/C=C/C=C/C(=O)O
inactive: OVCAR-8 > 100 µM | M14 > 100 µM | UO-31 > 100 µM | HL-60 > 100 µM | NCI-H460 > 100 µM | SNB-78 > 100 µM | SK-MEL-28 > 100 µM | RXF 393 > 100 µM | CCRF-CEM > 100 µM | CAKI-1 > 100 µM | NCI-H226 > 100 µM | SN12C > 100 µM | A549 > 100 µM | SK-MEL-5 > 100 µM

COc1c(O)c2c3c(c(C)cc(O)c3c1O)C(=O)C(O)(C(C)(C)C(C)=O)C2=O (centres undefined)
inactive: OVCAR-8 > 100 µM | M14 > 100 µM | UO-31 > 100 µM | HL-60 51.4 µM and 50.9 µM | NCI-H460 > 100 µM | SNB-78 71.8 µM | SK-MEL-28 > 100 µM | RXF 393 > 100 µM | CCRF-CEM 61.9 µM and 57 µM | CAKI-1 > 100 µM | NCI-H226 19.3 µM | SN12C > 100 µM and 82.4 µM | A549 > 100 µM | SK-MEL-5 77.1 µM

N#CC1=C(Cl)NC(Cl)=C(C#N)C1c1ccc(Cl)cc1
inactive: OVCAR-8 16.2 µM | M14 16.8 µM | UO-31 17 µM | HL-60 18.5 µM | NCI-H460 17 µM | SNB-78 25.9 µM | SK-MEL-28 22.9 µM | RXF 393 17.1 µM | CCRF-CEM 25 µM | CAKI-1 17.9 µM | NCI-H226 20.5 µM | SN12C 16.9 µM | A549 22.1 µM | SK-MEL-5 17 µM

COC(=O)c1c[nH]c2nc(N3CCOCC3)nn2c1=O
inactive: OVCAR-8 > 100 µM | M14 > 100 µM | UO-31 > 100 µM | HL-60 > 100 µM | NCI-H460 > 100 µM | SNB-78 > 100 µM | SK-MEL-28 > 100 µM | RXF 393 > 100 µM | CCRF-CEM > 100 µM | CAKI-1 > 100 µM | NCI-H226 > 100 µM | SN12C > 100 µM | A549 > 100 µM | SK-MEL-5 > 100 µM

CCOc1ccccc1NC(=O)C1=C(C)NC(C)=C(C(=O)Nc2ccccc2OCC)C1c1cccc([N+](=O)[O-])c1
inactive: OVCAR-8 86.5 µM | M14 > 100 µM | UO-31 28.2 µM | HL-60 30.5 µM | NCI-H460 87.9 µM | SNB-78 23.5 µM | SK-MEL-28 > 100 µM | RXF 393 47.4 µM | CCRF-CEM 37.9 µM | CAKI-1 5.9 µM | NCI-H226 80.4 µM | SN12C > 100 µM | A549 31.6 µM | SK-MEL-5 32.1 µM

COc1cc2c(cc1OC)C1c3ccccc3C(C#N)(C2)N(C(=O)c2ccccc2)C1O (centres undefined)
inactive: OVCAR-8 54.2 µM | M14 79.1 µM | UO-31 61.8 µM | HL-60 42.3 µM | NCI-H460 59.7 µM | SNB-78 37.1 µM | SK-MEL-28 > 100 µM | RXF 393 85.5 µM | CCRF-CEM 52.1 µM | NCI-H226 61.1 µM | SN12C > 100 µM | SK-MEL-5 30.7 µM

CC(C)N(C(=O)C12C3C4C1C1C2C3C41I)C(C)C (centres undefined)
inactive: OVCAR-8 > 100 µM | M14 > 100 µM | UO-31 > 100 µM | HL-60 > 100 µM | NCI-H460 > 100 µM | SNB-78 > 100 µM | SK-MEL-28 > 100 µM | CCRF-CEM > 100 µM | CAKI-1 > 100 µM | NCI-H226 > 100 µM | SN12C > 100 µM | A549 > 100 µM | SK-MEL-5 > 100 µM

Fc1cccc(/C=N/C23CC4CC(CC(C4)C2)C3)c1
inactive: OVCAR-8 > 100 µM | M14 > 100 µM | UO-31 > 100 µM | HL-60 > 100 µM | NCI-H460 > 100 µM | SNB-78 > 100 µM | SK-MEL-28 > 100 µM | RXF 393 > 100 µM | CCRF-CEM > 100 µM | CAKI-1 > 100 µM | NCI-H226 > 100 µM | SN12C > 100 µM

COC(=O)C1=C(O)c2cc3c(cc2[C@H](c2cc(OC)c(OC)c(OC)c2)C1)OCO3
inactive: OVCAR-8 51.3 µM | M14 34.7 µM | UO-31 3.24 µM | HL-60 14.3 µM | NCI-H460 34 µM | SNB-78 87.1 µM | SK-MEL-28 39.2 µM | RXF 393 57.9 µM | CCRF-CEM 38.1 µM | CAKI-1 34.8 µM | NCI-H226 87.7 µM | SN12C 54.1 µM | A549 57.5 µM | SK-MEL-5 20.8 µM

COc1ccc(C2ON(c3cccc(C)n3)CC=C2C)cc1 (centres undefined)
inactive: OVCAR-8 > 100 µM | M14 32.6 µM | UO-31 45.7 µM | HL-60 18 µM | NCI-H460 67.9 µM | SNB-78 37.4 µM | SK-MEL-28 23.7 µM | RXF 393 29.4 µM | CCRF-CEM 42.9 µM | CAKI-1 74.1 µM | NCI-H226 > 100 µM | SN12C 70.6 µM | A549 40.7 µM | SK-MEL-5 17.6 µM

CC1(Cl)CC(C)(/C=C/Cl)C(Cl)CC1Cl (centres undefined)
inactive: OVCAR-8 16.8 µM | M14 17 µM | UO-31 16.1 µM | NCI-H460 14.2 µM | SNB-78 20.9 µM | SK-MEL-28 15 µM | RXF 393 14.8 µM | CCRF-CEM 19.1 µM | CAKI-1 16.1 µM | SN12C 17.3 µM | A549 14 µM | SK-MEL-5 14 µM

COC(=O)[C@@]12C(=O)C=CC(=O)[C@@H]1C1C(=CC2COC(C)=O)O[C@@H]2OC3(CCCCC3)O[C@H]12 (some centres undefined)
inactive: MDA-N 12.6 µM | OVCAR-8 7.94 µM | Hs-578T 9.46 µM | M14 15.6 µM | UO-31 14.9 µM | MDA-MB-435 16.2 µM | HL-60 2.89 µM | MDA-MB-231 19.5 µM | NCI-H460 16.9 µM | SNB-78 21.5 µM | SK-MEL-28 17.2 µM | RXF 393 11.1 µM | PC-3 12.6 µM | BT-549 13.2 µM | CCRF-CEM 8.13 µM | CAKI-1 12.6 µM | NCI-H226 17.2 µM | SN12C 15.5 µM | A549 14.5 µM | SK-MEL-5 18 µM

CC1=CCCC2C(C=O)(C1)CC(C)C2(CO)CC/C(=C/CO)CO (centres undefined)
inactive: OVCAR-8 > 100 µM | M14 > 100 µM | UO-31 24.9 µM | NCI-H460 > 100 µM | SNB-78 > 100 µM | SK-MEL-28 > 100 µM | RXF 393 > 100 µM | CCRF-CEM 71.9 µM | CAKI-1 57.3 µM | NCI-H226 38.5 µM | SN12C > 100 µM | A549 > 100 µM | SK-MEL-5 > 100 µM

CCN(c1n[n+]2c(-c3ccccc3)csc2s1)c1n[n+]2c(-c3ccccc3)csc2s1
inactive: OVCAR-8 74.3 µM | M14 92.5 µM | UO-31 > 100 µM | HL-60 22.3 µM | NCI-H460 53.1 µM | SNB-78 > 100 µM | SK-MEL-28 79.1 µM | RXF 393 65.9 µM | CCRF-CEM 32.5 µM | NCI-H226 > 100 µM | SN12C > 100 µM | A549 > 100 µM | SK-MEL-5 38 µM

Cc1c(C(=O)/C=C/c2ccccc2)[n+]([O-])c2ccccc2[n+]1[O-]
inactive: OVCAR-8 15 µM | M14 15.3 µM | UO-31 20 µM | HL-60 13.9 µM | NCI-H460 17.6 µM | SNB-78 34.3 µM | SK-MEL-28 16.7 µM | RXF 393 2.07 µM | CCRF-CEM 22.2 µM | CAKI-1 17.5 µM | NCI-H226 20.8 µM | SN12C 13.8 µM | A549 18.4 µM

From ChEMBL document CHEMBL1201862, “PubChem BioAssay data set” (2004)
